Reference: ChEMBL document CHEMBL5226299, “Targeting Lysosomal Degradation Pathways: New Strategies and Techniques for Drug Discovery” (J Med Chem, 2021)

Molecular target: Methionine aminopeptidase 2 (Homo sapiens) (UniProt P50579)
Test: Induction of MetAP-2 degradation in human HeLa cells at 10 uM relative to control
Type: cell-based

Chain of Methionine aminopeptidase 2 (Homo sapiens) (P50579 2-478 limits assumed): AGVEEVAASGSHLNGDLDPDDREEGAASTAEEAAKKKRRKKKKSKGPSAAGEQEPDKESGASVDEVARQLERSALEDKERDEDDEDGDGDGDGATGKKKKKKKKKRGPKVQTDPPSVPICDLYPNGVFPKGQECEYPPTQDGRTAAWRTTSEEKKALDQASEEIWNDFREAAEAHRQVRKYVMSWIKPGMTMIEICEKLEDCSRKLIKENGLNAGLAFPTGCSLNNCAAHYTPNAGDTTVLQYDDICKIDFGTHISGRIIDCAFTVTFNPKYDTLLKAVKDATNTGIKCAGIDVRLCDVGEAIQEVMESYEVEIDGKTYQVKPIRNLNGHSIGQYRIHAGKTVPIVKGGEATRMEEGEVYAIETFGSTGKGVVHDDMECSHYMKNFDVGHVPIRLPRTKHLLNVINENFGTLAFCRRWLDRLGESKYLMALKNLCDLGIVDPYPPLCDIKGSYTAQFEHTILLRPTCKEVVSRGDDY

- Activity: 80%
Compound: CO[C@@H]1[C@H](OC(=O)NCCCOCCOCCOCCCNC(=O)[C@H](CSc2nc3c(=O)[nH]c(N)nc3n2Cc2ccc(F)cc2)NC(C)=O)CC[C@]2(CO2)[C@H]1[C@@]1(C)O[C@@H]1CC=C(C)C
